Data from PMC7370187, “Screening of an Epigenetic Drug Library Identifies 4-((hydroxyamino)carbonyl)-N-(2-hydroxyethyl)-N-Phenyl-Benzeneacetamide that Reduces Melanin Synthesis by Inhibiting Tyrosinase Activity Independently of Epigenetic Mechanisms” (International Journal of Molecular Sciences, 2020).
Entries after “also recorded” stand apart in the source; their conditions may differ.

Columns and labels:
[1] = test system: B16-F10 cells; assay: Cell viability assay (MTT); type: cell-based, murine; conditions: 48 h
Method: Cell viability was evaluated using 3-(4,5-dimethylthiazol-2-yl)-2,5-diphenyltetrazolium bromide (MTT). After treatment of B16-F10 cells with each drug for 48 h, cells were washed with phosphate-buffered saline (PBS) and incubated for 2 h in the culture medium containing 1 mg∙mL^−1 MTT (Amresco, Solon, OH, USA). The medium was discarded by aspiration, the formazan dye deposited inside the cells was extracted with isopropanol, and absorbance was measured at 595 nm using a Spectrostar Nano microplate reader.

[2] = test system: B16-F10 murine melanoma cells; assay: Screening assay for overall melanin synthesis (OD 400 nm) in α-MSH-stimulated cells; type: cell-based; conditions: 100 nM α-MSH, 72 h
Method: For the screening assay, B16-F10 cells were plated in 96-well plates (3 × 10^3 cells per well) and cultured for 24 h. The cells were then treated with a test drug at 1.0 μM for 60 min, and subsequently stimulated with 0.1 μM α-MSH for 72 h. Overall melanin synthesis was estimated by measuring the absorbance of each well (cells plus medium, without cell lysis) at 400 nm using a Spectrostar Nano microplate reader (BMG LABTECH GmbH, Ortenberg, Germany).

[3] = test system: TYR; assay: In vitro TYR catalytic activity, murine and human TYR given together (abstract); type: biochemical; conditions: range over human and murine TYR preparations
Method: (§1) To examine the direct effect of a drug on the catalytic activity of TYR, in vitro experiments were undertaken. Lysate of B16F10 cells stimulated with α-MSH for 24 h was used as a murine TYR preparation. Human TYR preparation was the lysate of human embryonic kidney 293 cells constitutively expressing human TYR (HEK293-TYR). […] The TYR activity assay mixture (200 μL) consisted of 100 mM sodium phosphate buffer (pH 6.8), TYR preparation (40 μg protein), a drug at various concentrations, 1.0 mM L-tyrosine, and 42 μΜ L-DOPA. For enzyme kinetic study, the concentrations of L-tyrosine plus L-DOPA were varied while their relative ratio was kept the same as the standard assay condition. […] The reactions were also performed in the absence of a TYR preparation to correct for the effects of non-enzymatic reactions. Enzyme activity was calculated as follows: activity (% control) = (C−D)/(A−B) × 100, where A and B are the absorbance changes of the control group with and without enzyme, respectively, while C and D are the absorbance changes of the test group with and without enzyme, respectively.

[4] = test system: TYR, TYRP1, DCT and MITF protein in B16-F10 cells; assay: Western blotting of melanogenic proteins; type: cell-based, murine; conditions: 100 nM α-MSH, 24 h, β-actin loading control
Method: Western blotting was performed as previously described. Primary antibodies for TYR (#127217) was purchased from MyBioSource (San Diego, CA, USA). Primary antibodies for TYRP1 (#10443) and β-actin (#47778) were purchased from Santa Cruz Biotechnology (Santa Cruz, CA, USA). Primary antibodies for MITF (#20663) and DCT (#74073) were purchased from Abcam (Cambridge, UK). Anti-rabbit IgG (#2357) and anti-goat IgG (#2020) secondary antibodies were purchased from Santa Cruz Biotechnology. Anti-mouse IgG (#7076) secondary antibody was purchased from Cell Signaling Technology (Danvers, MA, USA). Each antibody was diluted 1 to 1000 in antibody dilution buffer containing 20 mM Tris-Cl (pH 7.5), 200 mM NaCl and 5% skim milk.
After B16-F10 cells were treated with drug and/or α-MSH, whole-cell lysates were prepared using a lysis buffer (pH 7.2) consisting of 10 mM Tris-Cl (pH 7.4), 120 mM NaCl, 25 mM KCl, 2 mM EGTA, 1 mM EDTA, 0.5% Triton X-100 and a protease inhibitor cocktail (Roche, Mannheim, Germany) for foe evaluation of TYR, TYRP1, and DCT. For MITF extraction, cells were extracted with RIPA buffer consisting of 25 mM Tris-HCl (pH 7.6), 150 mM NaCl, 1% NP-40, 1% sodium deoxycholate, 0.1% SDS and protease inhibitor cocktail. Proteins were denatured in the Laemmli sample buffer by heating at 95 °C for 5 min and separated by 7.5% SDS-PAGE gel. Proteins were transferred to a polyvinylidene difluoride membrane (Amersham Pharmacia, Little Chalfont, UK). The membrane was incubated with a primary antibody solution at 4 °C overnight, followed by incubation with a solution of a secondary antibody conjugated to horseradish peroxidase at room temperature for 1 h. The target protein bands were detected by a chemiluminescence method using a picoEPD Western Reagent kit (ELPIS-Biotech, Daejeon, Korea). The blots were analyzed using the NIH Image J program.

[5] = target: T1, murine TYR (Mus musculus, UniProt P11344); assay: In vitro TYR catalytic activity assay, lysate of α-MSH-stimulated B16F10 cells; type: biochemical
T1 construct: One is the protein extract of B16F10 cells stimulated by α-MSH and thus expresses a high amount of TYR; endogenous in cells; host or cells: B16F10 murine melanoma cells stimulated with α-MSH for 24 h; Triton X-100 lysate supernatant
T1 sequence (P11344 19-533): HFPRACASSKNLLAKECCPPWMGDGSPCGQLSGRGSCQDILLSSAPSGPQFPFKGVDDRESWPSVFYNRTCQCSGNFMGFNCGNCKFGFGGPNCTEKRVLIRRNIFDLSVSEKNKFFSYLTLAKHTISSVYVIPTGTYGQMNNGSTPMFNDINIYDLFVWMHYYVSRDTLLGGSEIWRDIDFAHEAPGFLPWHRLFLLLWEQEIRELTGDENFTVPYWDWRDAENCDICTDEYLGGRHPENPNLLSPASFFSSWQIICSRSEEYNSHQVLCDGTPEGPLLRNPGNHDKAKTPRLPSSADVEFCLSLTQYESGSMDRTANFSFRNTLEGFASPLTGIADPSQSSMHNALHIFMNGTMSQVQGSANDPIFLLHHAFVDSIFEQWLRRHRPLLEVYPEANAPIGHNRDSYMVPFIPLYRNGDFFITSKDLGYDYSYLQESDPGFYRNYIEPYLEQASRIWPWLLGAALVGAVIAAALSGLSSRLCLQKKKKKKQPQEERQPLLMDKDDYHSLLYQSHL
Method: as §1

[6] = Copper chelating activity assay (pyrocatechol violet); type: physicochemical; conditions: 200 μM test compound, 200 μM copper ions, 200 μM pyrocatechol violet, absorbance 632 nm
Method: Copper chelating activity was determined by using pyrocatechol violet (Sigma-Aldrich). […] The reaction mixture containing a potential chelator at varied concentrations, 200 μM CuSO4, and 200 μM pyrocatechol violet was incubated at 25 °C for 20 min, and its absorption spectra were recorded using a Shimadzu UV-1650PC spectrophotometer (Shimadzu Corporation, Kyoto, Japan). Copper chelating activity was evaluated by the change in the absorbance of pyrocatechol violet at 632 nm.

With O=C(NO)c1ccc(CC(=O)N(CCO)c2ccccc2)cc1 [K8, 4-((hydroxyamino)carbonyl)-N-(2-hydroxyethyl)-N-phenyl-benzeneacetamide] the relative viability ([1]; drug 1.0 μM) was “without reducing cell viability”, the “cytotoxicity (relative viability)” value ([1]; drug at various concentrations) was “did not show toxic effects up to 10 μM” and the “relative melanin synthesis (OD 400 nm)” value ([2]; drug 1.0 μM) was “markedly inhibited cellular melanin synthesis”. The “melanin synthesis (OD 400)” value ([2]; drug at varied concentrations) was “attenuated by both drugs in a dose-dependent manner; also recorded: suppressed almost all melanin synthesis”, the IC50 [3] was 1100 to 1500 nM and the DCT protein level [4] was “did not significantly attenuate the increase”. The MITF protein expression [4] was “not significantly affected”, the “TRP1 (TYRP1) protein level” value [4] was “did not significantly attenuate the increase” and the TYR protein level [4] was “did not significantly attenuate the increase”. The IC50 ([5]; B16F10 cell-free extract, L-tyrosine plus L-DOPA) was 1500 nM, the “inhibition type (Lineweaver–Burk plots)” value ([5]; murine TYR, varying substrate concentrations) was “competitive type of inhibition” and the copper ions chelated [6] was 27%.
